Test results from patent US20190091165A1, “METHOD FOR PREPARING NANOPARTICLE OF ACTIVE INGREDIENT USING LIPID AS LUBRICANT IN MILLING PROCESS” (BIO-SYNECTICS INC., priority 2017, published 2019).

Assay: Separate experiment: dissolving and recrystallizing in a solvent (crystal form / salt stability)
Format: physicochemical

CNC(=O)c1cc(Oc2ccc(NC(=O)Nc3ccc(Cl)c(C(F)(F)F)c3)cc2)ccn1.Cc1ccc(S(=O)(=O)O)cc1 [Sorafenib tosylate III]
crystal form and salt stability on recrystallization: crystal form change and partial generation of free base compound by loss of tosylate salt
